The source of these data is article PMC3572379, “Pharmacokinetic and pharmacodynamic effects of comedication of clopidogrel and dabigatran etexilate in healthy male volunteers” (European Journal of Clinical Pharmacology, 2012).

Data set [1] is described as follows: Capillary bleeding time (Surgicutt device). It is filed as in vivo, healthy male subjects. The following applies: part 2. Here is the method:
The bleeding time was assessed by single measurements on the forearm using the Surgicutt® Bleeding Time Device (Product Number SUB50, International Technidyne, Edison, NJ, USA). Using a Surgicutt device, a standardized incision of 5 mm length and 1 mm depth was made in the skin. Every 30 s, the blood flow was wicked away cautiously with filter paper, so that the platelet plug remained intact, until the bleeding stopped. Normal bleeding time was under 8 min. For the CBT individual listings including the baseline value, the maximum value of the post-dose measurements, and the corresponding time of the maximum value were provided.

In the next data set the test system is P-gp. The settings on record: cited from earlier work.
A short description of data set [2]: Safety and tolerability assessment. It is filed as in vivo, healthy male subjects. The settings on record: one subject each; parts 2 and 3.
Data set [3] concerns ADP-induced platelet aggregation. Kind of data set: ADP-induced inhibition of platelet aggregation (light transmission aggregometry in citrated PRP). It is filed as in vivo, healthy male subjects. The following applies: for Emax: Homo sapiens, Platelet. Here is the method: The primary endpoints for PD were area under the effect curve of ADP-induced inhibition of platelet aggregation (IPA) at steady state of clopidogrel over one dosing interval from 0–24 h after dosing (AUECIPA,τ,ss); maximum percentage change compared with baseline in ADP-induced platelet aggregation at steady state of clopidogrel (Emax,IPA,ss); AUEC from 0 to 24 h (AUECIPA,0–24) after the loading dose of clopidogrel 600 mg; and the maximum percentage change compared with baseline in ADP-induced platelet aggregation from 0 to 24 h (Emax,IPA,0–24) after the loading dose of clopidogrel 600 mg.
The following PD parameters were also evaluated: • For clopidogrel, ADP-induced IPA was determined at predefined time points. • Capillary bleeding times were assessed (part 2 and part 3 of the study) before clopidogrel administration, 2, 4, and 12 h after clopidogrel administration, and following administration of dabigatran etexilate alone.
For platelet aggregation testing, ∼9 mL of blood was collected into a 10 mL monovette containing citrate to yield a final concentration of 10.6 mM. Platelet-rich plasma (PRP) was prepared by centrifugation and removed from the red-cell sediment. Approximately 0.5 mL platelet-poor plasma (PPP) was prepared from PRP by further centrifugation. Inhibition of platelet aggregation was performed by light transmission aggregometry in citrated PRP, using an 8-channel platelet aggregation profiler (PAP 8) aggregometer (möLab, Germany). The PRP (0% light transmission) and PPP (100% light transmission) served as reference. After baseline adjustment, ADP in a final concentration of 20 μM was added and aggregation recorded for 6 min. Maximum aggregation (%) within the first 6 min after addition of ADP was determined.

Setting [4] is: part 2, clopidogrel 75 mg qd + DE 150 mg bid vs clopidogrel 75 mg qd.
Where [5] appears, read: part 3, clopidogrel 600 mg + DE 150 mg bid vs clopidogrel 600 mg.
Where [6] appears, read: part 3, reference: clopidogrel 600 mg single dose, n 12.

Each structure is given as a SMILES string. Read-outs that look alike come from different tables or passages of the source.

For orientation: Emax means the size of the effect at its maximum, as opposed to the concentration needed. Take `COC(=O)[C@H](c1ccccc1Cl)N1CCc2sccc2C1` [Clopidogrel, clopidogrel]: the “maximum capillary bleeding time (CBT)” value in data set [1] is given as “prolonged”. Besides, in the data set with P-gp, the “substrate of P-gp” value is reported as “substrate of P-gp”. For the same molecule, the “AEs considered related to the study drugs” value in data set [2] was “hematoma”. Moreover, the Emax in data set [3] (part 1, after single dose clopidogrel 300 mg, data not shown, read-out: maximum inhibition of ADP-dependent platelet aggregation (Emax)) was around 50%; in data set [3] (part 2, reference: clopidogrel 75 mg qd, n 23, read-out: Emax, ss, mean (maximum percentage change in ADP-induced platelet aggregation)), 58.8%; in data set [3] (part 2, test: clopidogrel 75 mg qd + DE 150 mg bid, n 21, read-out: Emax, ss, mean (maximum percentage change in ADP-induced platelet aggregation)), 55.1%; in data set [3] (part 3, reference: clopidogrel 600 mg single dose, n 12, read-out: Emax, mean (maximum percentage change in ADP-induced platelet aggregation)), around 60%; in data set [3] (part 3, test: clopidogrel 600 mg + DE 150 mg bid, n 11, read-out: Emax, mean (maximum percentage change in ADP-induced platelet aggregation)), 66.8%. In data set [3] (setting [4]), the “AUECIPA, τ,ss difference test – reference” value is reported as −39.7 %·h. The “AUECIPA, τ,ss difference test – reference, relative” value in data set [3] (setting [4]) was −8.0%. Further, the “AUECIPA, τ,ss, mean” value amounted to 496 %·h in data set [3] (part 2, reference: clopidogrel 75 mg qd, n 21) and 456 %·h in data set [3] (part 2, test: clopidogrel 75 mg qd + DE 150 mg bid, n 21). The “AUEC0–24h difference test – reference” value in data set [3] (setting [5]) is −84.6 %·h. In data set [3] (setting [5]), the “AUEC0–24h difference test – reference, relative” value is on record as −6.7%. The “AUEC0–24h of IPA, mean” value in data set [3] (setting [6]) is listed as 1264 %·h; in data set [3] (part 3, reference: clopidogrel 600 mg single dose, n 12, listed as clopidogrel), 1,264 %·h; in data set [3] (part 3, test: clopidogrel 600 mg + DE 150 mg bid, n 11), 1179 %·h; in data set [3] (part 3, test: clopidogrel 600 mg + DE 150 mg bid, n 11, listed as clopidogrel), 1,179 %·h. The “Emax, mean (maximum percentage change in ADP-induced platelet aggregation)” value in data set [3] (setting [6]) turned out to be 66.0%.
